Laboratory results: patent US12558325B2, “Methods for improving neurological diseases and disorders” (CuraSen Therapeutics, Inc., priority 2019, dated 2026)
Entries after “also recorded” stand apart in the source; their conditions may differ.

Columns and labels:
healthy subjects [1] = assay: ASL MRI cerebral perfusion before and after a single dose (Example 3); format: in vivo, human
Method: In a clinical study, healthy subjects were administered doses of clenbuterol ranging from 20 to 160 μg and ASL MRI was conducted prior to and after dosing with an objective to ascertain whether this neuroimaging method enables the detection of a clinically relevant CNS signal.
In a region of interest (ROI) analysis focusing on the hippocampus, which is well understood to be affected in neurodegenerative disorders, a single dose of 80 μg of clenbuterol causes a robust increase in perfusion (see FIG. 7). […] Taken together with other cohorts in which ASL MRI was conducted, a clear dose response relationship is seen between dose of clenbuterol and cerebral perfusion (FIG. 8). […] Our hypothesis is that by improving cerebral perfusion, particularly in areas of the brain that are relevant for symptoms that are commonly found in neurodegenerative diseases such as PD and AD, the administration of a β2-AR agonist will have a positive effect on clinically relevant symptoms such as memory and cognition.

subjects = assay: Visual verbal learning test (VVLT); format: in vivo, human; conditions: crossover study; for effect on the VVLT (learning and memory): 3 agents plus placebo
Method: The visual verbal learning test (VVLT) is a test for learning and memory (de Haas 2009). Subjects are presented 30 words on a screen, one at a time, for 1 second with a 1-second interval between words over a total of 1 minute. This is repeated in 3 trials. After each trial, subjects are asked to recall as many words as they can. After the third trial, there is a delay of 2.5 hours and subjects are then tested once for delayed recall. […] Since this was a crossover study, everyone who completed Part A was dosed with the 3 agents plus placebo.

healthy subjects [2] = assay: Adaptive tracking test (visuomotor coordination and vigilance); format: in vivo, human; conditions: single dose of 160 μg clenbuterol
Excerpt: Adaptive tracking measures visuomotor coordination and vigilance. In this test, the subject uses a joystick to move a small dot so that it stays within a continuously moving circle on a computer screen (Boland 1984). During the test, the speed of the circle is adjusted in response to the subject's ability to keep the dot in the circle, ensuring that the test is adapted to the individual subject. […] The improvement shown by subjects is in the same range as that seen with subjects treated with the acetylcholinesterase inhibitor donepezil, which is in clinical use for the treatment of mild to moderate AD (Groeneveld 2016).

patients = assay: Cerebral blood flow relative to baseline after a single dose (Example 1); format: in vivo, human
Ts65Dn mice = conditions: increasing brain NE levels; cited from earlier work

SMILES: CC(C)(C)NCC(O)c1cc(Cl)c(N)c(Cl)c1 (stereo not shown) [clenbuterol]
- cerebral perfusion increase as measured by CBF (healthy subjects [1]; clenbuterol dose of 40 μg): minimal increase
- cerebral perfusion increase as measured by CBF (healthy subjects [1]; clenbuterol doses below 30 μg): do not produce significant cerebral perfusion increases
- improvements in perfusion in brain areas relevant to neurodegenerative disorders (healthy subjects [1]; doses of 80 and 160 μg clenbuterol): ~25%
- global perfusion (healthy subjects [1]; doses of 80 and 160 μg clenbuterol, ASL MRI): robust, global increase
- increase in hippocampal perfusion, on average (healthy subjects [1]; single dose of 80 μg clenbuterol, 6 healthy subjects aged 44 to 52, ROI hippocampus): 25%
- cerebral perfusion (global; hippocampus, thalamus, cortex) (healthy subjects [1]; single dose of 160 μg clenbuterol, ASL MRI): robust global increase
- VVLT performance, immediate recall (Trial 1) (subjects): improved performance
- effect on the VVLT (learning and memory) (subjects): positive effects
- VVLT performance, delayed recall (subjects; recall after delay of 2.5 hours): improved performance
- performance in adaptive tracking (percent time dot kept within moving circle) (healthy subjects [2]): improved
- cognition as measured by adaptive tracking and word recall (healthy subjects [2]; healthy subjects, preliminary data): improves cognition
- cerebral blood flow (CBF) relative to the baseline (patients; single dose of clenbuterol 160 μg): robust global increase; also recorded: positive increase
- cerebral blood flow (CBF) relative to the baseline (patients; single dose of clenbuterol ranging from 30 to 160 μg, tracked over 3 days): robust global increase

SMILES: CC(C)(C)NCC(O)c1ccc(O)c(CO)c1 (stereo not shown) [salbutamol]
- effect on the VVLT (learning and memory) (subjects): positive effects

SMILES: N[C@H](C(=O)O)[C@H](O)c1ccc(O)c(O)c1 [L-DOPS, L-threo-3,4-dihydroxyphenylserine]
- contextual learning (Ts65Dn mice): restored contextual learning

SMILES: CC(C)NCC(O)COc1cccc2[nH]ccc12 (stereo not shown) [pindolol]
- effect on the VVLT (learning and memory) (subjects): detrimental effect
